Experimental data reported in US10568834B2, “Delivery systems for propofol” (Yissum Research Development Company of the Hebrew …, priority 2015, dated 2020).

Key:
[1] = Self-diffusion NMR (SD-NMR); format: physicochemical; settings: for Diffusion coefficient of EtOH / Diffusion coefficient of PEG400 / Diffusion coefficient of PG / Diffusion coefficient of Solutol / Diffusion coefficient of the Loaded specie: B9A loaded with 1 wt % of the specie
Experimental: In order to determine the structure of the oil droplets (or micelles) of the microemulsions, self-diffusion NMR analysis was carried out. SD-NMR is able to locate each component within the microemulsion via measurements of its diffusion coefficient.
NMR measurements were performed with a Bruker AVII 500 spectrometer equipped with GREAT 1/10 gradients, a 5 mm BBO and a 5 mm BBI probe, both with a z-gradient coil and with a maximum gradient strength of 0.509 and 0.544 T m^−1, respectively. Diffusion was measured using an asymmetric bipolar longitudinal eddy-current delay (bpLED) experiment, or and asymmetric bipolar stimulated echo (known as one-shot) experiment with convection compensation and an asymmetry factor of 20%, ramping the strongest gradient from 2% to 95% of maximum strength in 32 steps. The spectrum was processed with the Bruker TOPSPIN software. NMR spectra were recorded at 25±0.2° C. The components were identified by their chemical shift in 1H NMR.

[2] = Microemulsion formation/appearance with propofol-like species or another surfactant; format: physicochemical; settings: B9A loaded with 1 wt % of the specie, FIGS. 5A-5D
Experimental: The relationship between the surfactant and the propofol with respect to binding in the microemulsion-composition was assessed by loading B9A with 1 wt % of species similar in their structure to propofol.

[3] = B6A microemulsion, Loaded (1 wt % propofol)
[4] = B9A microemulsion, Loaded (1 wt % propofol)
[5] = Formulation with Tween 80, Loaded
[6] = Formulation with Tween 80, Unloaded
[7] = Formulation with Tween 60, Loaded
[8] = Formulation with Tween 60, Unloaded

Compound	Diffusion coefficient of the component [1, 3]	Diffusion coefficient of the component [1, 4]	Diffusion coefficient of EtOH [1]	Diffusion coefficient of PEG400 [1]	Diffusion coefficient of PG [1]	Diffusion coefficient of Solutol [1]	Diffusion coefficient of the Loaded specie [1]	further results
polyethylene glycol 15-hydroxystearate [Solutol]	1.62 × 10^−11 m^2/sec	1.50 × 10^−11 m^2/sec						Diffusion coefficient of the component ([1]; B6A microemulsion, Unloaded): 1.45 × 10^−11 m^2/sec; Diffusion coefficient of the component ([1]; B9A microemulsion, Unloaded): 1.94 × 10^−11 m^2/sec
COc1ccc(O)c(C(C)(C)C)c1 [drawing 4]			91.2 ×10^−11 m^2/sec	24.5 ×10^−11 m^2/sec	78.3 ×10^−11 m^2/sec	1.75 ×10^−11 m^2/sec	1.78 ×10^−11 m^2/sec	
CC(C)c1cccc(C(C)C)c1N			94.6 ×10^−11 m^2/sec	26.2 ×10^−11 m^2/sec	44.8 ×10^−11 m^2/sec	1.76 ×10^−11 m^2/sec	2.15 ×10^−11 m^2/sec	
polysorbate 80 [Tween 80]								Diffusion coefficient of the component [1, 5]: 2.08 × 10^−11 m^2/sec; Diffusion coefficient of the component [1, 6]: 1.73 × 10^−11 m^2/sec
CC(C)c1ccc(O)c(C(C)C)c1 [2,4-isomer]								Appearance of the system loaded with the specie [2]: not completely transparent
CCO [Ethanol, ethanol]	6.91 × 10^−10 m^2/sec	9.82 × 10^−10 m^2/sec						Diffusion coefficient of the component ([1]; B6A microemulsion, Unloaded): 8.83 × 10^−10 m^2/sec; Diffusion coefficient of the component ([1]; B9A microemulsion, Unloaded): 7.65 × 10^−10 m^2/sec
COc1ccc(O)c(C(C)(C)C)c1 [BHA]								Appearance of the system loaded with the specie [2]: not completely transparent
polysorbate 60 [Tween 60]								Diffusion coefficient of the component [1, 7]: 1.63 × 10^−11 m^2/sec; Diffusion coefficient of the component [1, 8]: 0.92 × 10^−11 m^2/sec
Cc1cc(C(C)(C)C)c(O)c(C(C)(C)C)c1 [drawing 5]			98.2 ×10^−11 m^2/sec	24.3 ×10^−11 m^2/sec	79.1 ×10^−11 m^2/sec	1.75 ×10^−11 m^2/sec	1.58 ×10^−11 m^2/sec	
CC(C)(C)c1cc(O)ccc1O [TBHQ]								Appearance of the system loaded with the specie [2]: classic milky emulsion
Cc1cc(C(C)(C)C)c(O)c(C(C)(C)C)c1 [BHT]								Appearance of the system loaded with the specie [2]: not completely transparent
CC(C)c1ccc(O)c(C(C)C)c1 [drawing 3]			96.6 ×10^−11 m^2/sec	26.3 ×10^−11 m^2/sec	73.6 ×10^−11 m^2/sec	1.63 ×10^−11 m^2/sec	1.75 ×10^−11 m^2/sec	
CC(C)c1cccc(C(C)C)c1O [Propofol, 2,6-diisopropyl phenol]	1.02 × 10^−11 m^2/sec	1.54 × 10^−11 m^2/sec	98.2 ×10^−11 m^2/sec	26.3 ×10^−11 m^2/sec	84.5 ×10^−11 m^2/sec	1.50 ×10^−11 m^2/sec	1.54 ×10^−11 m^2/sec	Diffusion coefficient of the component [1, 7]: 1.04 × 10^−11 m^2/sec; Diffusion coefficient of the component [1, 5]: 1.73 × 10^−11 m^2/sec
O [Water, water]	1.37 × 10^−9 m^2/sec	1.62 × 10^−9 m^2/sec						Diffusion coefficient of the component ([1]; B6A microemulsion, Unloaded): 1.76 × 10^−9 m^2/sec; Diffusion coefficient of the component ([1]; B9A microemulsion, Unloaded): 1.52 × 10^−9 m^2/sec; Diffusion coefficient of the component [1, 7]: 1.12 × 10^−9 m^2/sec; Diffusion coefficient of the component [1, 8]: 1.86 × 10^−9 m^2/sec; Diffusion coefficient of the component [1, 5]: 1.24 × 10^−9 m^2/sec; Diffusion coefficient of the component [1, 6]: 1.91 × 10^−9 m^2/sec
CC(O)CO (stereo not shown) [Propylene glycol, propylene glycol]	5.22 × 10^−10 m^2/sec	8.45 × 10^−10 m^2/sec						Diffusion coefficient of the component ([1]; B6A microemulsion, Unloaded): 6.68 × 10^−10 m^2/sec; Diffusion coefficient of the component ([1]; B9A microemulsion, Unloaded): 5.96 × 10^−10 m^2/sec; Diffusion coefficient of the component [1, 7]: 3.24 × 10^−10 m^2/sec; Diffusion coefficient of the component [1, 8]: 4.96 × 10^−10 m^2/sec; Diffusion coefficient of the component [1, 5]: 4.82 × 10^−10 m^2/sec; Diffusion coefficient of the component [1, 6]: 5.43 × 10^−10 m^2/sec
